Laboratory results from ChEMBL document CHEMBL1201862, “PubChem BioAssay data set” (2004).
The source made the active and inactive calls.

Experiments:
Type in all cases: functional
[1] = target: Tyrosine-protein kinase ABL1 (Homo sapiens, UniProt P00519)
[2] = target: Death-associated protein kinase 3 (Homo sapiens, UniProt O43293);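 further: measured as one member of a kinome-wide profiling panel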
[3] = target: Tyrosine-protein kinase Lck (Homo sapiens, UniProt P06239);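 further: lck was assayed as one member of a kinase panel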
[4] = target: Dual specificity tyrosine-phosphorylation-regulated kinase 1A (Homo sapiens, UniProt Q13627);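 further: measured against DYRK1A as one member of a broad kinome profiling panel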
[5] = target: Tyrosine-protein kinase Fyn (Homo sapiens, UniProt P06241)
[6] = target: Aurora kinase B (Homo sapiens, UniProt Q96GD4)
[7] = target: Serine/threonine-protein kinase pim-1 (Homo sapiens, UniProt P11309)
[8] = target: 5'-AMP-activated protein kinase catalytic subunit alpha-1 (Homo sapiens, UniProt Q13131)
[9] = target: Fibroblast growth factor receptor 1 (Homo sapiens, UniProt P11362)
[10] = target: Serine/threonine-protein kinase PAK 4 (Homo sapiens, UniProt O96013);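 further: value obtained within a kinome profiling panel in which PAK4 was one of the panel members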
[11] = target: Ribosomal protein S6 kinase alpha-3 (Homo sapiens, UniProt P51812);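 further: measured within a kinome-wide profiling panel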
[12] = target: Aurora kinase A (Homo sapiens, UniProt O14965);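 further: value from the Navigating the Kinome kinase panel profiling, panel entry STK6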
[13] = target: Mitogen-activated protein kinase 8 (Homo sapiens, UniProt P45983);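 further: value comes from one member of a kinome-wide kinase profiling panel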
[14] = target: Glycogen synthase kinase-3 beta (Homo sapiens, UniProt P49841);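 further: value comes from a broad kinome profiling panel, with GSK3B as the panel member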
[15] = target: Serine/threonine-protein kinase 3 (Homo sapiens, UniProt Q13188);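 further: measured as one member of a kinome-wide kinase panel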
[16] = target: Cell division cycle 7-related protein kinase (Homo sapiens, UniProt O00311);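 further: value obtained from a kinome-wide kinase panel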
[17] = target: Insulin-like growth factor 1 receptor (Homo sapiens, UniProt P08069); test: Navigating the Kinome. Panel member name: IGF1R
[18] = target: Macrophage colony-stimulating factor 1 receptor (Homo sapiens, UniProt P07333);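 further: value comes from the Navigating the Kinome screening panel, CSF1R member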
[19] = target: Rho-associated protein kinase 1 (Homo sapiens, UniProt Q13464);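 further: measured within a broad kinome-wide panel profiling many kinases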
[20] = target: Mitogen-activated protein kinase 9 (Homo sapiens, UniProt P45984);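 further: value from a kinome panel profiling assay, MAPK9 panel entry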
[21] = target: High affinity nerve growth factor receptor (Homo sapiens, UniProt P04629);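 further: NTRK1 tested as one member of a kinome-wide profiling panel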
[22] = target: Tyrosine-protein kinase JAK2 (Homo sapiens, UniProt O60674);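 further: JAK2 tested as one member of a kinase panel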
[23] = target: Vascular endothelial growth factor receptor 1 (Homo sapiens, UniProt P17948);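 further: measured within a kinome-wide profiling panel, FLT1 as the panel member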
[24] = target: Mast/stem cell growth factor receptor Kit (Homo sapiens, UniProt P10721);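 further: KIT entry within a kinase panel assay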
[25] = target: Vascular endothelial growth factor receptor 2 (Homo sapiens, UniProt P35968)
[26] = target: BDNF/NT-3 growth factors receptor (Homo sapiens, UniProt Q16620);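 further: NTRK2 measured as one member of a broad kinome-wide kinase profiling panel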
[27] = target: T1, Receptor-type tyrosine-protein kinase FLT3 (Homo sapiens, UniProt P36888);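 further: FLT3 was tested as one member of a kinome-wide kinase panel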
T1 sequence (P36888 whole entry): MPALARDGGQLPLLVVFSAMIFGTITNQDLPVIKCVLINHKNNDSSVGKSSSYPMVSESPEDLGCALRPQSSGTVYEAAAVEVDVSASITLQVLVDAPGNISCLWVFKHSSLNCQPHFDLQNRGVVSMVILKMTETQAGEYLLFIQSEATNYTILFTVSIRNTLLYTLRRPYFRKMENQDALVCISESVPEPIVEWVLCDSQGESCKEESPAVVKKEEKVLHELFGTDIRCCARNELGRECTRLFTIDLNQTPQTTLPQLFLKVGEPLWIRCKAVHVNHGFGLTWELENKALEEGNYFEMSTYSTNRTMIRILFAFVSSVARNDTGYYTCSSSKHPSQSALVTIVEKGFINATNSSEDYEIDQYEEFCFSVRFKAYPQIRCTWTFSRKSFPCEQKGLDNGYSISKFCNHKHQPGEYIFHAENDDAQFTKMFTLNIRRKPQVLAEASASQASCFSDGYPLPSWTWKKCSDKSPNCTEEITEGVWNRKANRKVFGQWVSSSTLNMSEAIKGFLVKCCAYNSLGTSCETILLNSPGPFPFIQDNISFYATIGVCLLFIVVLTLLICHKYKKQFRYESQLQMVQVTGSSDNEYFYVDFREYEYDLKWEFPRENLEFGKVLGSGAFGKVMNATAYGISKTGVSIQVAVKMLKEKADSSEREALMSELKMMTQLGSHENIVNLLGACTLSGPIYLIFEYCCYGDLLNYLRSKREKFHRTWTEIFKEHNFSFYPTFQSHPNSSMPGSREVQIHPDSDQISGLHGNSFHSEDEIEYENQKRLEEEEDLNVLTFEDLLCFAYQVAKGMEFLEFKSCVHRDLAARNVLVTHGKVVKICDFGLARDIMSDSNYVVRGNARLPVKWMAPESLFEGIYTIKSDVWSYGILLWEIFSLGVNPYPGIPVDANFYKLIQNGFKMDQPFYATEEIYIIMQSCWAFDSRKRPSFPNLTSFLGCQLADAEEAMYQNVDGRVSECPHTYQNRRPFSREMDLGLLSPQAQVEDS

[28] = target: Glycogen synthase kinase-3 alpha (Homo sapiens, UniProt P49840);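 further: GSK3A result taken from a broad kinome-wide kinase panel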
[29] = target: Tyrosine-protein kinase JAK3 (Homo sapiens, UniProt P52333)
[30] = target: cAMP-dependent protein kinase catalytic subunit alpha (Homo sapiens, UniProt P17612)
[31] = target: Rho-associated protein kinase 2 (Homo sapiens, UniProt O75116)
[32] = target: Serine/threonine-protein kinase pim-2 (Homo sapiens, UniProt Q9P1W9);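 further: value comes from a broad kinase panel profiling study in which PIM2 was one of the panel members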
[33] = target: Cyclin-dependent kinase 5 (Homo sapiens, UniProt Q00535);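 further: CDK5 measured as one member of a kinase profiling panel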

Chain of Mitogen-activated protein kinase 9 (P45984 whole entry): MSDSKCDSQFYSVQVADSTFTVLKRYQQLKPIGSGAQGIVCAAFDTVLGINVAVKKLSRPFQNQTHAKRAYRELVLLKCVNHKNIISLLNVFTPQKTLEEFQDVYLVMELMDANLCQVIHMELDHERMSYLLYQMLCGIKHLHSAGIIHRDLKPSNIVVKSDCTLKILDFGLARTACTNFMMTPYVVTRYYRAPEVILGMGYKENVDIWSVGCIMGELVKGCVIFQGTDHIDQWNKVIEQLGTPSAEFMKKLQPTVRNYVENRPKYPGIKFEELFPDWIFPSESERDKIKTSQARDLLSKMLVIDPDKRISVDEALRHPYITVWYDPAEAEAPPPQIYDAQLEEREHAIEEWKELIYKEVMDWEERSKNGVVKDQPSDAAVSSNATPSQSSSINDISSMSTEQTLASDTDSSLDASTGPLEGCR
Chain of Insulin-like growth factor 1 receptor (P08069 31-736 limits assumed): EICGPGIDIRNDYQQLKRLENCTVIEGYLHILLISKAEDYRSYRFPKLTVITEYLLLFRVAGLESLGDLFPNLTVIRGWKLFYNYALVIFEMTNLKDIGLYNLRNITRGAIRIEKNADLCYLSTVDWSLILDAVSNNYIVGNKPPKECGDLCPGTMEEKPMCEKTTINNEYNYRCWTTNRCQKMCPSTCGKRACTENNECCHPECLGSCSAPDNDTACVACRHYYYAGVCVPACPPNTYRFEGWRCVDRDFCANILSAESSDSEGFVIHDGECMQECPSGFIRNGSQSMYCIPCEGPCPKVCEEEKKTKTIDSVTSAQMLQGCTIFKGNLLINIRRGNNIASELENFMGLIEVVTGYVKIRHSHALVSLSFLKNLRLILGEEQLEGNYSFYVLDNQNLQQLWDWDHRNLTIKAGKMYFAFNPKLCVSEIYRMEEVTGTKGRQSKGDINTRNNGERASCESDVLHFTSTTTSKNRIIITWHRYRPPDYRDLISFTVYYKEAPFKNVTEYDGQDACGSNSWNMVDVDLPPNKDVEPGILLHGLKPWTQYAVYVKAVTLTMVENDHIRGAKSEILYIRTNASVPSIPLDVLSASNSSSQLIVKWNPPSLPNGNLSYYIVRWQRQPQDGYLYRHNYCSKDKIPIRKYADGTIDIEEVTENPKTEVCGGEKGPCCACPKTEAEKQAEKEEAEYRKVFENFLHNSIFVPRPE
Chain of Insulin-like growth factor 1 receptor (P08069 741-1367 limits assumed): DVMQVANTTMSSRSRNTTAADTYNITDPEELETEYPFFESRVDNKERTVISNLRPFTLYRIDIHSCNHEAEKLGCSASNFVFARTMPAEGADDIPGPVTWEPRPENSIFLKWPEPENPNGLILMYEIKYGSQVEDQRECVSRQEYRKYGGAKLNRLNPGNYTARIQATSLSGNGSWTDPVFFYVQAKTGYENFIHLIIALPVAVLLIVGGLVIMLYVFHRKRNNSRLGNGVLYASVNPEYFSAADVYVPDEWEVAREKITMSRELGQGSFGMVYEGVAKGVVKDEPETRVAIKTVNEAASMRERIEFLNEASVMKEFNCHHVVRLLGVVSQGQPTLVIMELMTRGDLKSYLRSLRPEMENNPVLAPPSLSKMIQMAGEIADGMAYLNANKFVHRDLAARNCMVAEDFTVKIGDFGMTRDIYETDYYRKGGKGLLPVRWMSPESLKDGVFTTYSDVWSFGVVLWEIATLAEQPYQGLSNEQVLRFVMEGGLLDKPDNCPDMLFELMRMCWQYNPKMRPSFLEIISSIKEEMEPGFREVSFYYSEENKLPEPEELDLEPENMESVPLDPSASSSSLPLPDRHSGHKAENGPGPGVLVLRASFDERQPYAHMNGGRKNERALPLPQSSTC
Chain of Vascular endothelial growth factor receptor 2 (P35968 whole entry): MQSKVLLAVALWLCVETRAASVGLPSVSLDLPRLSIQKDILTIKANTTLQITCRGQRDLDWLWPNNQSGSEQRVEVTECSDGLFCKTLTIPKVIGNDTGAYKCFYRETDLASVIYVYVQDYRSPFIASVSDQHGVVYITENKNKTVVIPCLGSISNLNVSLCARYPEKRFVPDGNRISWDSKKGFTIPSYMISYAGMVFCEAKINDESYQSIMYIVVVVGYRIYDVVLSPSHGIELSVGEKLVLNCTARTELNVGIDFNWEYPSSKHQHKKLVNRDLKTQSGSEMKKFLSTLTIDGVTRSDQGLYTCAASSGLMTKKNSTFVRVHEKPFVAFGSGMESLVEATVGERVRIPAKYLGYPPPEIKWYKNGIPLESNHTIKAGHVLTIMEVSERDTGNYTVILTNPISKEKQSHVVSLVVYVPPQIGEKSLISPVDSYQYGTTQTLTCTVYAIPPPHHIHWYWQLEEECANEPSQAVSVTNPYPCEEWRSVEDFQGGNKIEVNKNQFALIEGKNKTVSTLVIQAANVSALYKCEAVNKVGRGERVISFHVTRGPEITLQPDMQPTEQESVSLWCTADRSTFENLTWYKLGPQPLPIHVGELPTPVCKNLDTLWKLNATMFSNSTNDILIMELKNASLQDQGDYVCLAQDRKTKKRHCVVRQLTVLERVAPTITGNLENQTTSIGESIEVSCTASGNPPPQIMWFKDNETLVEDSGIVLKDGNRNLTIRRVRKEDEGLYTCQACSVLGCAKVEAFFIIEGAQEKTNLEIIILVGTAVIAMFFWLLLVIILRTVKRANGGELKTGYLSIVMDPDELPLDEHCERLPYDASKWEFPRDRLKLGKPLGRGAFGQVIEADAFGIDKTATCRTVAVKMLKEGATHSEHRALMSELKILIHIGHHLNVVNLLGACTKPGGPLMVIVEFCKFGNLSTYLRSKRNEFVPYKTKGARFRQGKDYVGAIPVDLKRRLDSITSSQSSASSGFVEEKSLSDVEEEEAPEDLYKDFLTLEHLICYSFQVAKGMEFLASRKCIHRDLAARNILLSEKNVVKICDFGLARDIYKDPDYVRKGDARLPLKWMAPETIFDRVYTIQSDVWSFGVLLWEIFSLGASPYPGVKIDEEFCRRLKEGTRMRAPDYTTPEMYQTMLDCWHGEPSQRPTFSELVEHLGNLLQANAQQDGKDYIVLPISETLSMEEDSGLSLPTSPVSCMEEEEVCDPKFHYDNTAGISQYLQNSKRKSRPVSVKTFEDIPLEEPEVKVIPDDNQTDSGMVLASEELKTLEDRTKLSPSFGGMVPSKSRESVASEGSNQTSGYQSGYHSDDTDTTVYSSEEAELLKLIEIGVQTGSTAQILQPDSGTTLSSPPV
Chain of Glycogen synthase kinase-3 alpha (P49840 whole entry): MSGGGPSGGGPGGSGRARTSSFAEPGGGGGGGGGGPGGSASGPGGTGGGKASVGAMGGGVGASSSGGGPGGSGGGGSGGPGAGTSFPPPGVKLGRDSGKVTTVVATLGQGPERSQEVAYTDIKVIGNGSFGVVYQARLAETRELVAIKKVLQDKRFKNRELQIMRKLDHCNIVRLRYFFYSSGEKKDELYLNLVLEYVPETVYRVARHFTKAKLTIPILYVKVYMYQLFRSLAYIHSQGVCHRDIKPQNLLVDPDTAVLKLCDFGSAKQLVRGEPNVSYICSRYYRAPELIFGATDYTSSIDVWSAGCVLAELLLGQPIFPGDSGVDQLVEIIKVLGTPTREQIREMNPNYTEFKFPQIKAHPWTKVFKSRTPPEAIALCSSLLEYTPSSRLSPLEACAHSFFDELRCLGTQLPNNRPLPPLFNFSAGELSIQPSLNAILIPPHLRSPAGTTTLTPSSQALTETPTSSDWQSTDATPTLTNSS
Chain of Macrophage colony-stimulating factor 1 receptor (P07333 whole entry): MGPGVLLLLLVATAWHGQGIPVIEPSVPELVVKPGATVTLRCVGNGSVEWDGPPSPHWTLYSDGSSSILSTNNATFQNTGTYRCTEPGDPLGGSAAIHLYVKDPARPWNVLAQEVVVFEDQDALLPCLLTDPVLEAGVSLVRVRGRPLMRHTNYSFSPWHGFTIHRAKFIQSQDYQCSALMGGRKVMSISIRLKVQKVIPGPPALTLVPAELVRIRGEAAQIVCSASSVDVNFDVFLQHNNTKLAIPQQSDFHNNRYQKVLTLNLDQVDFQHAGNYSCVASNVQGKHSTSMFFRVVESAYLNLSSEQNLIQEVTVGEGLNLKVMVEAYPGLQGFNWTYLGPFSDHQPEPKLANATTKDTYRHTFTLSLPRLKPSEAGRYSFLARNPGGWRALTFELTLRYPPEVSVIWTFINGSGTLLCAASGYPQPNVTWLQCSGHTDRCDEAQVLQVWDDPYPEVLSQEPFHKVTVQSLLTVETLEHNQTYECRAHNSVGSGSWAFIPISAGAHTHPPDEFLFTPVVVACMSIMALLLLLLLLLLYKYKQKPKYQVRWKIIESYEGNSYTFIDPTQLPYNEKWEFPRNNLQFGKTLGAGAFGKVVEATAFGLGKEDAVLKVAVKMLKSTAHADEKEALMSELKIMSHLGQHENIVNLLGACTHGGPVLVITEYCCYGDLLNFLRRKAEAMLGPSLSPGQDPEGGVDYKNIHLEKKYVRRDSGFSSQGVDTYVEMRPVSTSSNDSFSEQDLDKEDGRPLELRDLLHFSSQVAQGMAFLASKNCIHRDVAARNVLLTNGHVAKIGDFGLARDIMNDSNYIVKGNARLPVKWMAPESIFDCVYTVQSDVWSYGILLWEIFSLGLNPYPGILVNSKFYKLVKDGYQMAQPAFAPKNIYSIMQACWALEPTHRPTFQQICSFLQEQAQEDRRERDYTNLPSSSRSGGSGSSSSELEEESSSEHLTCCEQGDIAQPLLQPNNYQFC
Chain of Aurora kinase B (Q96GD4 whole entry): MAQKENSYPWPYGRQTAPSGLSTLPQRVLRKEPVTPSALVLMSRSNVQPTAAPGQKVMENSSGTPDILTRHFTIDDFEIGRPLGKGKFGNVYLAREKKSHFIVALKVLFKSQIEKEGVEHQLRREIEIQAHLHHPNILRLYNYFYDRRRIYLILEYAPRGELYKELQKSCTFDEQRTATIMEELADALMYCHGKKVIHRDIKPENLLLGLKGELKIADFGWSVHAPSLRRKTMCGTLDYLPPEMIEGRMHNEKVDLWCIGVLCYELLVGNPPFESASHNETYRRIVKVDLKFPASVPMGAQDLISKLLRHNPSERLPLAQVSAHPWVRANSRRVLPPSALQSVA

Row | SMILES | Ki [1] | Ki [2] | Ki [4] | Ki [5] | Ki [6] | Ki [7] | Ki [8] | Ki [9] | Ki [10] | Ki [11] | Ki [12] | Ki [13] | Ki [14] | Ki [15] | Ki [17] | Ki [18] | Ki [19] | Ki [20] | Ki [21] | Ki [22] | other results
1 | CN(C)C1CCC(Nc2nc(Cl)cc(-c3c[nH]c4ncccc34)n2)CC1 (stereo unspecified) | > 3980 nM (inactive) | 63.1 nM (active) | 39.8 nM (active) | > 6310 nM (inactive) | 794 nM (active) | 251 nM (active) | 79.4 nM (active) | > 3980 nM (inactive) | 50.1 nM (active) | 63.1 nM (active) | > 1580 nM (inactive) | 1000 nM (active) | 1580 nM (active) | 79.4 nM (active) | > 2510 nM (inactive) | 501 nM (active) | 1.26 nM (active) | > 3980 nM (inactive) | > 3160 nM (inactive) | 1260 nM (active) | Ki [3]: 5010 nM (active); Ki [16]: 0.316 nM (active); Ki [23]: > 3980 nM (inactive); Ki [24]: > 3980 nM (inactive); Ki [25]: 1260 nM (active); Ki [26]: 1580 nM (active); Ki [27]: 1580 nM (active); Ki [28]: 794 nM (active); Ki [29]: 1580 nM (active); Ki [30]: 25.1 nM (active)
2 | NC(COc1cncc(-c2cc3ccncc3s2)c1)Cc1c[nH]c2ccccc12 (stereo unspecified) | > 631 nM (inactive) | 63.1 nM (active) | 3.98 nM (active) | > 794 nM (inactive) | 794 nM (active) | 79.4 nM (active) | 316 nM (active) | 2510 nM (active) | 5010 nM (active) | 25.1 nM (active) | > 6310 nM (inactive) | 2510 nM (active) | 12.6 nM (active) | 794 nM (active) | > 1000 nM (inactive) | > 2510 nM (inactive) | 20 nM (active) | > 3980 nM (inactive) | > 2510 nM (inactive) | 1000 nM (active) | Ki [31]: 10 nM (active); Ki [32]: > 1580 nM (inactive); Ki [33]: 316 nM (active); Ki [23]: 316 nM (active); Ki [24]: 631 nM (active); Ki [25]: 794 nM (active); Ki [26]: > 5010 nM (inactive); Ki [27]: 251 nM (active); Ki [28]: 25.1 nM (active); Ki [29]: > 1580 nM (inactive); Ki [30]: 10 nM (active)
